ChEMBL document CHEMBL1201861, “Genomics of Drug Sensitity in Cancer screening data, Wellcome Trust Sanger Institute”

How the values were obtained:
COR-L105 = assay: cells; type: functional, cell-based; settings: Homo sapiens
Description: SANGER: Inhibition of human COR-L105 cell growth in a cell viability assay.

DK-MG = assay: cells; type: functional, cell-based; settings: Homo sapiens;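 further: growth inhibition of DK-MG cells, read out with a cell viability assay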
Description: SANGER: Inhibition of human DK-MG cell growth in a cell viability assay.

DMS-273 = assay: cells; type: functional, cell-based; settings: Homo sapiens
Description: SANGER: Inhibition of human DMS-273 cell growth in a cell viability assay.

DU-145 = assay: cells; type: functional, cell-based; settings: Homo sapiens
Description: SANGER: Inhibition of human DU-145 cell growth in a cell viability assay.

EFM-19 = assay: cells; type: functional, cell-based; settings: Homo sapiens;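 further: growth inhibition of human EFM-19 cells, measured in a cell viability assay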
Description: SANGER: Inhibition of human EFM-19 cell growth in a cell viability assay.

ESS-1 = assay: cells; type: functional, cell-based; settings: Homo sapiens;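 further: growth inhibition of human ESS-1 cells, read out by a cell viability assay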
Description: SANGER: Inhibition of human ESS-1 cell growth in a cell viability assay.

G-361 = assay: cells; type: functional, cell-based; settings: Homo sapiens
G-402 = assay: cells; type: functional, cell-based; settings: Homo sapiens
Description: SANGER: Inhibition of human G-402 cell growth in a cell viability assay.

GDM-1 = assay: cells; type: functional, cell-based; settings: Homo sapiens;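 further: cell viability readout used to measure growth inhibition of human GDM-1 cells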
Description: SANGER: Inhibition of human GDM-1 cell growth in a cell viability assay.

H4 = assay: cells; type: functional, cell-based; settings: Homo sapiens
Description: SANGER: Inhibition of human H4 cell growth in a cell viability assay.

HCC38 = assay: cells; type: functional, cell-based; settings: Homo sapiens;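 further: cell viability assay on the human HCC38 cell line, with IC50 marking the concentration that inhibits cell growth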
Description: SANGER: Inhibition of human HCC38 cell growth in a cell viability assay.

HGC-27 = assay: cells; type: functional, cell-based; settings: Homo sapiens;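 further: growth inhibition of human HGC-27 cells, read out in a cell viability assay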
Description: SANGER: Inhibition of human HGC-27 cell growth in a cell viability assay.

HOS = assay: cells; type: functional, cell-based; settings: Homo sapiens;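 further: growth inhibition of human HOS cells, read out with a cell viability assay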
Description: SANGER: Inhibition of human HOS cell growth in a cell viability assay.

HT-1080 = assay: cells; type: functional, cell-based; settings: Homo sapiens
Description: SANGER: Inhibition of human HT-1080 cell growth in a cell viability assay.

HT55 = assay: cells; type: functional, cell-based; settings: Homo sapiens;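 further: cell viability readout measuring growth inhibition of human HT55 cells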
Description: SANGER: Inhibition of human HT55 cell growth in a cell viability assay.

Hs-578T = assay: cells; type: functional, cell-based; settings: Homo sapiens
Description: SANGER: Inhibition of human Hs-578-T cell growth in a cell viability assay.

IGROV-1 = assay: cells; type: functional, cell-based; settings: Homo sapiens;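 further: reduction of IGROV-1 cell growth, read out with a viability assay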
Description: SANGER: Inhibition of human IGROV-1 cell growth in a cell viability assay.

JIYOYE = assay: cells; type: functional, cell-based; settings: Homo sapiens
Description: SANGER: Inhibition of human JiyoyeP-2003 cell growth in a cell viability assay.

LB647-SCLC = assay: cells; type: functional, cell-based; settings: Homo sapiens;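 further: cell growth inhibition, read out by a viability assay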
Description: SANGER: Inhibition of human LB647-SCLC cell growth in a cell viability assay.

LC-1F = assay: cells; type: functional, cell-based; settings: Homo sapiens;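 further: growth inhibition of human LC-1F cells, read out with a cell viability assay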
Description: SANGER: Inhibition of human LC-1F cell growth in a cell viability assay.

LC4-1 = assay: cells; type: functional, cell-based; settings: Homo sapiens;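 further: growth inhibition of LC4-1 cells, read out with a cell viability assay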
Description: SANGER: Inhibition of human LC4-1 cell growth in a cell viability assay.

LK-2 = assay: cells; type: functional, cell-based; settings: Homo sapiens;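 further: growth inhibition of LK-2 cells, read out with a viability assay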
Description: SANGER: Inhibition of human LK-2 cell growth in a cell viability assay.

LU-99A = assay: cells; type: functional, cell-based; settings: Homo sapiens;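 further: growth inhibition of LU-99A cells, read out with a cell viability assay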
Description: SANGER: Inhibition of human LU-99A cell growth in a cell viability assay.

MC-CAR = assay: cells; type: functional, cell-based; settings: Homo sapiens;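 further: growth inhibition of the human MC-CAR cell line, read out by a cell viability assay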
Description: SANGER: Inhibition of human MC-CAR cell growth in a cell viability assay.

MDA-MB-175-VII = assay: cells; type: functional, cell-based; settings: Homo sapiens
MDA-MB-415 = assay: cells; type: functional, cell-based; settings: Homo sapiens
MHH-CALL-2 = assay: cells; type: functional, cell-based; settings: Homo sapiens;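 further: growth inhibition of the cell line, read out in a cell viability assay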
Description: SANGER: Inhibition of human MHH-CALL-2 cell growth in a cell viability assay.

MKN-45 = assay: cells; type: functional, cell-based; settings: Homo sapiens;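 further: growth inhibition of human MKN-45 cells, measured with a cell viability assay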
Description: SANGER: Inhibition of human MKN45 cell growth in a cell viability assay.

MONO-MAC-6 = assay: cells; type: functional, cell-based; settings: Homo sapiens;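 further: cell viability assay measuring growth inhibition of human MONO-MAC-6 cells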
Description: SANGER: Inhibition of human MONO-MAC-6 cell growth in a cell viability assay.

NCI-H1963 = assay: cells; type: functional, cell-based; settings: Homo sapiens;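 further: cell growth inhibition of the human line, determined with a cell viability assay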
Description: SANGER: Inhibition of human NCI-H1963 cell growth in a cell viability assay.

NCI-H2087 = assay: cells; type: functional, cell-based; settings: Homo sapiens;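 further: growth inhibition determined with a cell viability readout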
Description: SANGER: Inhibition of human NCI-H2087 cell growth in a cell viability assay.

NCI-H441 = assay: cells; type: functional, cell-based; settings: Homo sapiens;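 further: growth inhibition of NCI-H441 cells, read out with a cell viability assay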
Description: SANGER: Inhibition of human NCI-H441 cell growth in a cell viability assay.

NCI-H596 = assay: cells; type: functional, cell-based; settings: Homo sapiens;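 further: growth inhibition of NCI-H596 cells, read out with a cell viability assay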
Description: SANGER: Inhibition of human NCI-H596 cell growth in a cell viability assay.

NCI-H661 = assay: cells; type: functional, cell-based; settings: Homo sapiens;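 further: cell viability assay read-out, IC50 being the concentration that inhibits growth of the cells by half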
Description: SANGER: Inhibition of human NCI-H661 cell growth in a cell viability assay.

NCI-H727 = assay: cells; type: functional, cell-based; settings: Homo sapiens;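 further: growth inhibition of human NCI-H727 cells, read out with a cell viability assay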
Description: SANGER: Inhibition of human NCI-H727 cell growth in a cell viability assay.

OE33 = assay: cells; type: functional, cell-based; settings: Homo sapiens;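 further: growth inhibition of human OE33 cells, measured by a cell viability assay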
Description: SANGER: Inhibition of human OE33 cell growth in a cell viability assay.

RERF-LC-MS = assay: cells; type: functional, cell-based; settings: Homo sapiens;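 further: growth inhibition of human RERF-LC-MS cells, read out by a cell viability assay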
Description: SANGER: Inhibition of human RERF-LC-MS cell growth in a cell viability assay.

RT-112 = assay: cells; type: functional, cell-based; settings: Homo sapiens
Description: SANGER: Inhibition of human RT-112 cell growth in a cell viability assay.

Raji = assay: cells; type: functional, cell-based; settings: Homo sapiens;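 further: cell viability assay measuring inhibition of Raji cell growth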
Description: SANGER: Inhibition of human Raji cell growth in a cell viability assay.

S-117 = assay: cells; type: functional, cell-based; settings: Homo sapiens
Description: SANGER: Inhibition of human S-117 cell growth in a cell viability assay.

SCC-4 = assay: cells; type: functional, cell-based; settings: Homo sapiens;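 further: growth inhibition of human SCC-4 cells, read out as cell viability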
Description: SANGER: Inhibition of human SCC-4 cell growth in a cell viability assay.

SK-MM-2 = assay: cells; type: functional, cell-based; settings: Homo sapiens;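 further: growth inhibition of human SK-MM-2 cells, read out with a cell viability assay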
Description: SANGER: Inhibition of human SK-MM-2 cell growth in a cell viability assay.

SNU-423 = assay: cells; type: functional, cell-based; settings: Homo sapiens
Description: SANGER: Inhibition of human SNU-423 cell growth in a cell viability assay.

SUP-T1 = assay: cells; type: functional, cell-based; settings: Homo sapiens;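 further: growth inhibition of human SUP-T1 cells, read out as cell viability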
Description: SANGER: Inhibition of human SUP-T1 cell growth in a cell viability assay.

SW1088 = assay: cells; type: functional, cell-based; settings: Homo sapiens;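 further: growth inhibition of human SW1088 cells, read out by a cell viability assay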
Description: SANGER: Inhibition of human SW1088 cell growth in a cell viability assay.

SW837 = assay: cells; type: functional, cell-based; settings: Homo sapiens;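 further: growth inhibition of SW837 cells, determined with a cell viability assay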
Description: SANGER: Inhibition of human SW837 cell growth in a cell viability assay.

SAOS-2 = assay: cells; type: functional, cell-based; settings: Homo sapiens;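 further: growth inhibition of human Saos-2 cells determined by a cell viability assay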
Description: SANGER: Inhibition of human Saos-2 cell growth in a cell viability assay.

5637 = assay: cells; type: functional, cell-based; settings: Homo sapiens
Description: SANGER: Inhibition of human 5637 cell growth in a cell viability assay.

8305C = assay: cells; type: functional, cell-based; settings: Homo sapiens
Description: SANGER: Inhibition of human 8305C cell growth in a cell viability assay.

A 172 = assay: cells; type: functional, cell-based; settings: Homo sapiens;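 further: growth inhibition of A172 cells, measured with a cell viability readout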
Description: SANGER: Inhibition of human A172 cell growth in a cell viability assay.

A2780 = assay: cells; type: functional, cell-based; settings: Homo sapiens;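 further: growth inhibition of A2780 cells, read out with a cell viability assay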
Description: SANGER: Inhibition of human A2780 cell growth in a cell viability assay.

A-427 = assay: cells; type: functional, cell-based; settings: Homo sapiens;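 further: growth inhibition of human A-427 cells, read out by a cell viability assay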
Description: SANGER: Inhibition of human A427 cell growth in a cell viability assay.

A-431 = assay: cells; type: functional, cell-based; settings: Homo sapiens;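 further: growth inhibition of A-431 cells, determined with a cell viability read-out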
Description: SANGER: Inhibition of human A431 cell growth in a cell viability assay.

BL-70 = assay: SANGER: Inhibition of human BL-70 cell growth in a cell viability assay.; type: functional, cell-based
C3A = assay: cells; type: functional, cell-based; settings: Homo sapiens;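 further: growth inhibition of C3A human cells, quantified with a cell viability readout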
Description: SANGER: Inhibition of human C3A cell growth in a cell viability assay.

CAL-120 = assay: cells; type: functional, cell-based; settings: Homo sapiens;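 further: cell growth inhibition, read out as cell viability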
Description: SANGER: Inhibition of human CAL-120 cell growth in a cell viability assay.

CAL-12T = assay: cells; type: functional, cell-based, Homo sapiens; settings: Homo sapiens, CAL-12T;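 further: growth inhibition of human CAL-12T cells, read out with a cell viability assay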
Description: SANGER: Inhibition of human CAL-12T cell growth in a cell viability assay.

CAL-33 = assay: cells; type: functional, cell-based; settings: Homo sapiens;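 further: growth inhibition of CAL-33 cells, read out with a cell viability assay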
Description: SANGER: Inhibition of human CAL-33 cell growth in a cell viability assay.

TE-441-T = assay: cells; type: functional, cell-based; settings: Homo sapiens
Description: SANGER: Inhibition of human TE-441-T cell growth in a cell viability assay.

U-698-M = assay: cells; type: functional, cell-based; settings: Homo sapiens
Description: SANGER: Inhibition of human U-698-M cell growth in a cell viability assay.

UO-31 = assay: cells; type: functional, cell-based; settings: Homo sapiens
Description: SANGER: Inhibition of human U031 cell growth in a cell viability assay.

U-251 = assay: cells; type: functional, cell-based; settings: Homo sapiens;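 further: growth inhibition of human U-251 cells, read out through a cell viability assay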
Description: SANGER: Inhibition of human U251 cell growth in a cell viability assay.

YAPC = assay: cells; type: functional, cell-based; settings: Homo sapiens;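 further: growth inhibition of YAPC cells, measured with a cell viability assay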
Description: SANGER: Inhibition of human YAPC cell growth in a cell viability assay.

CAPAN-1 = assay: cells; type: functional, cell-based; settings: Homo sapiens;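 further: growth suppression of CAPAN-1 cells, read out by a cell viability assay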
Description: SANGER: Inhibition of human CAPAN-1 cell growth in a cell viability assay.

CHP-126 = assay: cells; type: functional, cell-based; settings: Homo sapiens
Description: SANGER: Inhibition of human CHP-126 cell growth in a cell viability assay.

SMILES: CO[C@@]12[C@H](COC(N)=O)C3=C(C(=O)C(C)=C(N)C3=O)N1C[C@@H]1N[C@@H]12 [MITOMYCIN]
- IC50 (COR-L105): 1610 nM
- IC50 (DK-MG): > 16000 nM
- IC50 (DMS-273): 161 nM
- IC50 (DU-145): < 62.5 nM
- IC50 (EFM-19): 2090 nM
- IC50 (ESS-1): < 62.5 nM
- IC50 (G-361): 124 nM
- IC50 (G-402): 85.9 nM
- IC50 (GDM-1): 377 nM
- IC50 (H4): < 62.5 nM
- IC50 (HCC38): 604 nM
- IC50 (HGC-27): 49.3 nM
- IC50 (HOS): 107 nM
- IC50 (HT-1080): 354 nM
- IC50 (HT55): 1950 nM
- IC50 (Hs-578T): 6200 nM
- IC50 (IGROV-1): 106 nM
- IC50 (JIYOYE): 630 nM
- IC50 (LB647-SCLC): 336 nM
- IC50 (LC-1F): 862 nM
- IC50 (LC4-1): 1240 nM
- IC50 (LK-2): 358 nM
- IC50 (LU-99A): 224 nM
- IC50 (MC-CAR): 161 nM
- IC50 (MDA-MB-175-VII): 3160 nM
- IC50 (MDA-MB-415): 724 nM
- IC50 (MHH-CALL-2): < 62.5 nM
- IC50 (MKN-45): 165 nM
- IC50 (MONO-MAC-6): 72.4 nM
- IC50 (NCI-H1963): 974 nM
- IC50 (NCI-H2087): 85.7 nM
- IC50 (NCI-H441): 17.6 nM
- IC50 (NCI-H596): 1540 nM
- IC50 (NCI-H661): 542 nM
- IC50 (NCI-H727): 212 nM
- IC50 (OE33): 338 nM
- IC50 (RERF-LC-MS): 1030 nM
- IC50 (RT-112): 178 nM
- IC50 (Raji): 1220 nM
- IC50 (S-117): 592 nM
- IC50 (SCC-4): 388 nM
- IC50 (SK-MM-2): 2720 nM
- IC50 (SNU-423): 1520 nM
- IC50 (SUP-T1): 110 nM
- IC50 (SW1088): 4670 nM
- IC50 (SW837): 276 nM
- IC50 (SAOS-2): 1410 nM
- IC50 5637: 31.9 nM
- IC50 (8305C): 156 nM
- IC50 (A 172): 538 nM
- IC50 (A2780): 107 nM
- IC50 (A-427): 301 nM
- IC50 (A-431): 43.8 nM
- IC50 (BL-70): 1280 nM
- IC50 (C3A): 194 nM
- IC50 (CAL-120): 5960 nM
- IC50 (CAL-12T): 491 nM
- IC50 (CAL-33): 537 nM
- IC50 (TE-441-T): 1600 nM
- IC50 (U-698-M): 1600 nM
- IC50 (UO-31): 366 nM
- IC50 (U-251): 129 nM
- IC50 (YAPC): 4370 nM
- IC50 (CAPAN-1): 116 nM
- IC50 (CHP-126): 72.4 nM

SMILES: CC(C)=CC[C@@H](O)C1=CC(=O)c2c(O)ccc(O)c2C1=O [SHIKONIN]
- IC50 (COR-L105): 230 nM
- IC50 (DK-MG): 9820 nM
- IC50 (DMS-273): 396 nM
- IC50 (DU-145): 193 nM
- IC50 (EFM-19): 212 nM
- IC50 (ESS-1): > 16000 nM
- IC50 (G-361): 473 nM
- IC50 (G-402): 882 nM
- IC50 (GDM-1): 2680 nM
- IC50 (H4): 284 nM
- IC50 (HCC38): 787 nM
- IC50 (HGC-27): 228 nM
- IC50 (HOS): 186 nM
- IC50 (HT-1080): 260 nM
- IC50 (HT55): 1690 nM
- IC50 (Hs-578T): 6220 nM
- IC50 (IGROV-1): 55.6 nM
- IC50 (JIYOYE): 1390 nM
- IC50 (LB647-SCLC): 233 nM
- IC50 (LC-1F): > 16000 nM
- IC50 (LC4-1): 360 nM
- IC50 (LK-2): 8570 nM
- IC50 (LU-99A): 1300 nM
- IC50 (MC-CAR): 814 nM
- IC50 (MDA-MB-175-VII): 2050 nM
- IC50 (MDA-MB-415): 2280 nM
- IC50 (MHH-CALL-2): 715 nM
- IC50 (MKN-45): 608 nM
- IC50 (MONO-MAC-6): 245 nM
- IC50 (NCI-H1963): 100 nM
- IC50 (NCI-H2087): 441 nM
- IC50 (NCI-H441): 15800 nM
- IC50 (NCI-H596): 818 nM
- IC50 (NCI-H661): 5430 nM
- IC50 (NCI-H727): 638 nM
- IC50 (OE33): 1810 nM
- IC50 (RERF-LC-MS): 4190 nM
- IC50 (RT-112): 70.4 nM
- IC50 (Raji): 631 nM
- IC50 (S-117): 387 nM
- IC50 (SCC-4): 441 nM
- IC50 (SK-MM-2): 499 nM
- IC50 (SNU-423): 163 nM
- IC50 (SUP-T1): 1820 nM
- IC50 (SW1088): 700 nM
- IC50 (SW837): > 16000 nM
- IC50 (SAOS-2): 2370 nM
- IC50 5637: > 16000 nM
- IC50 (8305C): 305 nM
- IC50 (A 172): 470 nM
- IC50 (A2780): 2560 nM
- IC50 (A-427): 18 nM
- IC50 (A-431): 107 nM
- IC50 (BL-70): 278 nM
- IC50 (C3A): 657 nM
- IC50 (CAL-120): 1360 nM
- IC50 (CAL-12T): 1900 nM
- IC50 (CAL-33): 2000 nM
- IC50 (TE-441-T): < 62.5 nM
- IC50 (U-698-M): 301 nM
- IC50 (UO-31): 771 nM
- IC50 (U-251): 1430 nM
- IC50 (YAPC): > 16000 nM
- IC50 (CAPAN-1): 759 nM
- IC50 (CHP-126): 695 nM
